This note sets out measurements from US12492210B2, “Tricyclic compounds and their use” (HUTCHISON MEDIPHARMA LIMITED, priority 2019, dated 2025).

Assay [1] concerns the target T1, MAPK1(ERK2) enzyme (Homo sapiens, UniProt P28482).
T1 construct: purchased Invitrogen PV3313
Description: Z-Lyte Kinase Assay of ERK2. The conditions noted are these: read-out: Example 18 IC50. Type of assay: biochemical. The method, then: Example 18: Z-Lyte Kinase Assay of ERK2
1. Materials and Reagents:
2. Reaction Steps: Plate Map
3. Solution Preparation • 1) 1.33× Kinase Buffer: Dilute 5× Kinase Buffer to 1.33× with ddH2O • 2) 4× Test Compounds: Serially dilute the test compounds to 4 folds of the concentrations desired, keeping the DMSO concentration at 8%. The final concentrations are 1, 0.33, 0.11, 0.037, 0.012, 0.004, 0.0014, 0.00046 μM, and the final concentration of DMSO is 2%. • 3) Kinase/Peptide Mixture (P/K solution): Prepare Kinase/Peptide Mixture by diluting the kinase to 0.6 μg/ml and the Z-LYTE™ Ser/Thr3 peptide to 4 μM in 1.33× Kinase Buffer. Mix gently by pipetting. • 4) Phospho-peptide Solution (PP solution): Add 0.4 μl of Z-LYTE™ Ser/Thr3 Phospho-peptide to 99.6 μl of 1.33× Kinase Buffer. • 5) ATP Solution: Prepare ATP Solution by diluting the 10 mM of ATP in 1.33× Kinase Buffer to 100 μM. • 6) Development Solution: Dilute Development Reagent A with Development Buffer as 1:1024. 4. Reaction • 1) Kinase reaction (10 μl of Volume) • a. In a 384-well plate, add 2.5 μl of 4× test Cpds to each well except C1, C2, C3 wells Add 2.5 μl of 8% DMSO to C1, C2, C3 wells • b. Put the plate on ice • c. Add 5 μl of P/K mixture to each test Cpd wells and C1, C2 wells • d. Add 5 μl of PP Solution to C3 well • e. Add 2.5 μl of 1.33× kinase buffer to C1 and C3 wells • f. Add 2.5 μl of 4×ATP Solution to each test Cpd wells and C2 well, respectively. Shake the plate for 30 Sec and centrifuge (1500 rpm, 1 min) • g. Seal the plate to protect from the light and incubate the plate for 1 hour at RT (25-30° C.) • 2) Development reaction • a. Add 5 μl of the Development solution to all wells • b. Shake the plate for 30 sec and centrifuge (1500 rpm, 1 min) • c. Seal the plate to protect from the light and incubate the plate for 1 hour at RT (25-30° C.) • 3) Stop and read • a. Add 5 μl of the Stop reagent to all wells • b. Shake the plate for 30 sec and centrifuge (1500 rpm, 1 min) • c. Measure the value of coumarin (Ex400 nm, Em445 nm) and fluorescein (Ex400 nm, Em520 nm), respectively. 5. Data Analysis Emission Ratio(ER)=Coumarin Emission (445 nm)/Fluorescein Emission (520 nm) % Phosphorylation=1−[ER×C3520nm−C3445nm]/[(C1445nm−C3445nm)+ER×(C3520nm−C1520nm)] Inhibition rate (IR)=1−% Photest Cpd% PhoC2 6. IC50 Value: determine IC50 with add-in software for Microsoft Excel, XLfit™ (version 2.0) from ID Business Solutions (Guildford, UK)

In assay [2] the test system is p-RSK (Thr359) in colo205 cells. Description: p-RSK (Thr359) Acumen Assay in Colo205. It counts as cell-based. As to conditions: Homo sapiens, COLO 205, 1 hour compound incubation, read-out: Example 19 IC50. On the procedure:
Example 19: p-RSK (Thr359) Acumen Assay in Colo205
• Phospho-p90RSK (Thr359) (D1E9) Rabbit mAb: cell signal, #8753 • Alexa Fluor® 488 donkey anti-rabbit IgG: invitrogen, #A-21206 • Propidium Iodide: Sigma, #p4170 • 4% Paraformaldehyde: SCRC, #DF021 • 10% Triton X-100: PIERCE, #28314 • 96-well plate (black with clear bottom): BD, #354640 • Acumen® eX3 (A Multilaser Microplate Cytometer For Enhanced High Content Screening): TTP LabTech 3. Acumen Assay Protocol • Seed 4000 cells in 100 μl 10% FBS/well into 96-well plate, incubate at 37° C., 5% CO2, overnight. • Dilute the compound to 3, 1, 0.33, 0.11, 0.037, 0.012, 0.004, 0.001 μM, keeping the DMSO concentration at 5%. Add 10 μl of diluted compound per well and incubate at 37° C., 5% CO2 for 1 hour. • Add 100 μl of 4% pre-warmed Paraformaldehyde (2% final), and incubate for 45 min at room temperature. • Remove paraformaldehyde solutions. Add 100 μl of ice-cold 0.1% Triton to fixed cells at room temperature for 30 min. • Wash twice with 150 μl PBS and incubate with 100 μl blocking buffer (1% BSA, in PBS) for 2˜3 hours at room temperature, seal the plate. • Wash once with PBS and incubate with 35 μl p-RSK (Thr359) (1:1000 dilution) overnight at 4° C. Seal the plate. • Wash twice with PBS and incubate for 1.5 hours at room temperature with 35 μl of Alexa Fluor® 488 donkey anti-rabbit IgG at a 1:1,000 dilution in antibody dilution buffer (0.1% BSA, in PBS). Cover plate in foil to keep out of light. • Wash twice with 150 μl PBS. Add 35 μl of 1.5 μM Propidium Iodide stock to each well to determine cell number, seal the plate. • Incubate at room temperature for 30 min. Load the plate into the Acumen Explorer and scan with the appropriate instrument settings. 4. Data Analysis
[formula] Note: • Percentagecompound well represents the positive percentage of cells treated by compound. • Percentagemin well represents the positive percentage of cells treated with 3 uM GDC0994. • Percentagemax well represents the positive percentage of cells without compounds treatment. 5. IC50 Value: determine IC50 with add-in software for Microsoft Excel, XLfit™ (version 2.0) from ID Business Solutions (Guildford, UK)

T1 sequence (P28482 whole entry): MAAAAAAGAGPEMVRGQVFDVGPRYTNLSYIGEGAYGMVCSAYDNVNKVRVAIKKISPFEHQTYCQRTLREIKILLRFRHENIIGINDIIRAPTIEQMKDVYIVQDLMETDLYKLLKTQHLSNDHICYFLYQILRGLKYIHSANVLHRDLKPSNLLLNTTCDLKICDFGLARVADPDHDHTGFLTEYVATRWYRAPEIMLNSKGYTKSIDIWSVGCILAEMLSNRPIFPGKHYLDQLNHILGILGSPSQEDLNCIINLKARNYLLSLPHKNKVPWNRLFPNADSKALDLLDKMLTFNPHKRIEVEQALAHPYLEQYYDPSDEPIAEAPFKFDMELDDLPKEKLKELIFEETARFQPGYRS

What is called IC50 is the midpoint of a concentration-inhibition curve. Consider `Cc1cnc(Nc2ccnn2C)cc1-c1cc2n(c1)C[C@H](CF)n1c-2nnc1C1(C(F)(F)F)CCC1` [Compound 82], for which the IC50 is no more than 5 nM in assay [1] and no more than 100 nM in assay [2].
Consider `Cn1nccc1Nc1cc(-c2cc3n(c2)CCCn2c-3nnc2C2(C(F)(F)F)CC2)c(Cl)cn1` [Compound 21], for which the figures for the IC50 in assay [1] and in assay [2] were no more than 5 nM and greater than 100 nM, respectively.
The corresponding values for `Cc1cnc(Nc2ccnn2C)nc1-c1cc2n(c1)CCCn1c-2nnc1C1(C(F)(F)F)CCC1` [Compound 12] are no more than 5 nM and no more than 100 nM.
For `Cn1nccc1Nc1cc(-c2cc3n(c2)C(C(F)F)Cn2c-3nnc2C(F)(F)C(F)F)c(Cl)cn1` (stereo not drawn) [Compound 260], the IC50 is 5 to 10 nM in assay [1] and greater than 100 nM in assay [2].
Take `Cn1nccc1Nc1cc(-c2cc3n(c2)CC(C)(C)Cn2c-3nnc2C2(C(F)(F)F)CCC2)c(Cl)cn1` [Compound 159]: the IC50 in assay [1] is 5 to 10 nM; in assay [2], no more than 100 nM.
The like results for `Cc1cnc(Nc2ccnn2C)cc1-c1cc2n(c1)C[C@H](CF)n1c-2nnc1C(F)(F)c1ccc(F)cc1F` [Compound 184] were, in that order, 5 to 10 nM and no more than 100 nM.
The like results for `CCc1cnc(Nc2ccnn2C)cc1-c1cc2n(c1)C[C@H](OC)Cn1c-2nnc1C1(C(F)(F)F)CCC1` [Compound 147] were, in that order, no more than 5 nM and greater than 100 nM.
The like results for `Cn1nccc1Nc1nccc(-c2cc3n(c2)C[C@H](CF)n2c-3nnc2C(F)(F)n2cc(Cl)cn2)n1` [Compound 111] were, in that order, no more than 5 nM and greater than 100 nM.
For `Cc1cnc(Nc2ccnn2C)cc1-c1cc2n(c1)C[C@H](CF)n1c-2nnc1C(F)(F)c1cccc(F)c1F` [Compound 180], the IC50 is greater than 10 nM in assay [1] and no more than 100 nM in assay [2].
Turning to `Cn1nccc1Nc1cc(-c2cc3n(c2)CCCn2c(Nc4ccccc4F)nnc2-3)c(Cl)cn1` [Compound 43], the IC50 in assay [1] was 5 to 10 nM; in assay [2] it was no more than 100 nM.
The corresponding values for `Cc1cnc(Nc2ccnn2C)cc1-c1cc2n(c1)CC1(Cn3c-2nnc3C(F)(F)C(F)F)CC(F)(F)C1` [Compound 168] are 5 to 10 nM and greater than 100 nM.
The like results for `Cn1nccc1Nc1nccc(-c2cn3c(c2Cl)-c2nnc(Cc4ccccc4F)n2CCC3)n1` [Compound 245] were, in that order, no more than 5 nM and no more than 100 nM.
The corresponding values for `Cn1nccc1Nc1cc(-c2cc3n(c2)CC2(CC2)Cn2c-3nnc2C2(C(C)(F)F)CCC2)c(Cl)cn1` [Compound 136] are greater than 10 nM and no more than 100 nM.
Turning to `Cc1cnc(Nc2ccnn2C)nc1-c1cc2n(c1)CC(F)(F)Cn1c-2nnc1C1(C(F)(F)F)CCC1` [Compound 264], the 50% inhibitory concentration (IC50) in assay [1] is no more than 5 nM; in assay [2] it was greater than 100 nM.
As to `Cc1c(-c2ccnc(Nc3ccnn3C)n2)cn2c1-c1nnc(C3(C(F)(F)F)CCC3)n1CCC2` [Compound 13], the IC50 in assay [1] is no more than 5 nM; in assay [2] it was greater than 100 nM.
The corresponding values for `Cc1cnc(Nc2ccnn2C)cc1-c1cc2n(c1)C[C@H](CF)n1c-2nnc1C(F)(F)c1nonc1C` [Compound 101] are no more than 5 nM and no more than 100 nM.
The corresponding values for `Cn1nccc1Nc1cc(-c2cc3n(c2)CC(F)(F)Cn2c-3nnc2C(C)(C)C(F)(F)F)c(Cl)cn1` [Compound 146] are no more than 5 nM and no more than 100 nM.
`CC[C@H]1Cn2cc(-c3nc(Nc4ccnn4C)ncc3C)cc2-c2nnc(C(F)(F)c3ccccc3F)n21` [Compound 265]: the IC50 is greater than 10 nM in assay [1] and greater than 100 nM in assay [2].
The corresponding values for `Cc1cnc(Nc2ccnn2C)cc1-c1cc2n(c1)C[C@H](CF)n1c-2nnc1C(F)(F)Oc1ccccc1F` [Compound 170] are greater than 10 nM and greater than 100 nM.
As to `Cn1nccc1Nc1cc(-c2cc3n(c2)CC2(CC2)n2c-3nnc2C(F)(F)C(F)F)c(F)cn1` [Compound 235], the IC50 is 5 to 10 nM in assay [1] and no more than 100 nM in assay [2].
In the case of `CO[C@@H]1Cn2cc(-c3cc(Nc4ccnn4C)ncc3Cl)cc2-c2nnc(C3(C(F)(F)F)CCC3)n2C1` [Compound 302], the 50% inhibitory concentration (IC50) is no more than 5 nM in assay [1] and no more than 100 nM in assay [2].
With `CCC(F)(F)c1nnc2n1[C@@H](CF)Cn1cc(-c3cc(Nc4ccnn4C)ncc3Cl)cc1-2` [Compound 61], the IC50 in assay [1] was no more than 5 nM; in assay [2] it was no more than 100 nM.
The like results for `Cn1nccc1Nc1cc(-c2cc3n(c2)CCn2c-3nnc2C2(C(F)F)CCC2)c(Cl)cn1` [Compound 46] were, in that order, no more than 5 nM and no more than 100 nM.
As for `[2H]C([2H])([2H])n1nccc1Nc1cc(-c2cc3n(c2)CCCn2c-3nnc2C2(C(F)(F)F)CCC2)c(C)cn1` [Compound 240], the figures for the IC50 in assay [1] and in assay [2] were no more than 5 nM and no more than 100 nM, respectively.
Turning to `Cc1cnc(Nc2ccnn2C)nc1-c1cc2n(c1)C[C@@H](C)n1c-2nnc1C1(C(F)(F)F)CCC1` [Compound 239], the IC50 was no more than 5 nM in assay [1] and greater than 100 nM in assay [2].
The like results for `Cn1nccc1Nc1cc(-c2cc3n(c2)CC2(CCC2)Cn2c-3nnc2C2(C(F)(F)F)CCC2)c(Cl)cn1` [Compound 55, 5-chloro-N-(1-methyl-1H-pyrazol-5-yl)-4-(3′-(1-(trifluoromethyl)cyclobutyl)-5′H,7′H-spiro[cyclobutane-1,6′-pyrrolo[1,2-a][1,2,4]triazolo[3,4-c][1,4]diazepin]-10′-yl)pyridin-2-amine] were, in that order, 5 to 10 nM and no more than 100 nM.
The like results for `Cn1nccc1Nc1cc(-c2cc3n(c2)C[C@@H](F)Cn2c-3nnc2C2(C(F)(F)F)CCC2)c(Cl)cn1` [Compound 122] were, in that order, no more than 5 nM and no more than 100 nM.
The corresponding values for `Cn1nccc1Nc1cc(-c2cc3n(c2)C[C@H](Cc2ccccc2)n2c(CCC(F)(F)F)nnc2-3)c(Cl)cn1` [Compound 203] are 5 to 10 nM and no more than 100 nM.
Turning to `Cc1cnc(Nc2ccnn2C)nc1-c1cc2n(c1)CCn1c-2nnc1C(F)(F)c1ccccc1F` [Compound 70], the IC50 in assay [1] is no more than 5 nM; in assay [2], no more than 100 nM.
The like results for `Cc1cnc(Nc2ccnn2C)cc1-c1cc2n(c1)CC1(COC1)Cn1c-2nnc1C1(C(F)(F)F)CCC1` [Compound 306] were, in that order, no more than 5 nM and no more than 100 nM.
